# Source: patent publication US20240050463A1, “THERAPEUTIC COMPOSITIONS AND METHODS FOR TREATING HEPATITIS B” (ARBUTUS BIOPHARMA CORPORATION, priority 2016, published 2024)
# Counter-ions that a name gives are not always drawn. Like-named read-outs stand apart in the source and are kept apart here.
# Experiments:
# [1] = test system: HBsAg secretion in HepG2.2.15 cells; assay: Inhibition of HBsAg in HepG2.2.15 cells (CLIA), checkerboard, MacSynergy II; format: cell-based, HBV (human hepatoblastoma HepG2 cells); details: for Additive % Inhibition (HBsAg) versus negative control: Trial 3
# Experimental: In vitro combination studies were conducted using the method of Prichard and Shipman (Prichard M N, and Shipman C Jr., Antiviral Research, 1990, 14(4-5), 181-205; and Prichard M N, et. al., MacSynergy II). The HepG2.2.15 cell culture system is a cell line derived from human hepatoblastoma HepG2 cells that have been stably transfected with the adw2− subtype HBV genome as previously explained in Sells et al. (Proc. Natl. Acad. Sci. U. S. A, 1987. Vol 84:1005-1009). HepG2.2.15 cells secrete Dane-like viral particles, produce HBV DNA, and also produce the viral proteins, hepatitis B e antigen (HBeAg) and hepatitis B surface antigen (HBsAg).
# To test the compound combinations, HepG2.2.15 (30,000 cells/well) were plated in 96 well tissue-culture treated microtiter plates in RPMI+L-Glutamine medium supplemented with 1% penicillin-streptomycin, 20 μg/mL geneticin (G418), 10% fetal bovine serum, and incubated in a humidified incubator at 37° C. and 5% CO2 overnight. […] […] The microtiter cell plates were incubated for a duration of 6 days in a humidified incubator at 37° C. and 5% CO2.
# Untreated positive control samples (0.5% DMSO in media) were included on each plate in multiple wells. Following a 6 day-incubation, media was removed from treated cells for use in an HBsAg chemiluminescence immunoassay (CLIA) (Autobio Diagnostics, Cat No. CL0310-2). An HBsAg standard curve was generated to verify that the levels of HBsAg quantification were within the detection limits of the assay. The remaining inhibitor-treated cells were assessed for cytotoxicity by determination of the intracellular adenosine triphosphate (ATP) using a Cell-Titer Glo reagent (Promega) as per manufacturers instructions and by microscopic analysis of the cells throughout the duration of inhibitor treatment. Cell viability was calculated as a percentage of the untreated positive control wells.
# The plates were read using an EnVision multimode plate reader (PerkinElmer Model 2104). […] The RLU data from the single compound treated cells were analyzed using XL-Fit module in Microsoft Excel to determine EC50 values using a 4-parameter curve fitting algorithm.
# [2] = test system: D type HBV in primary human hepatocytes (PHH); assay: HBV DNA in culture supernatants of HBV-infected primary human hepatocytes (qPCR), MacSynergy; format: cell-based; details: for AVERAGE % INHIBITION: HBV DNA, COMPOUND 25 0.00 nM; for inhibition at 0.00012 µM / inhibition at 0.00037 µM / inhibition at 0.00333 µM / inhibition at 0.01 µM: Hepatitis B virus, Hepatocyte; for inhibition at 0.00012 µM: TDF 0.12 nM alone; for inhibition at 0.00037 µM: TDF 0.37 nM alone; for inhibition at 0.00333 µM: TDF 3.33 nM alone; for inhibition at 0.01 µM: TDF 10.00 nM alone
# Experimental: (§1) The mouse liver perfusion was applied to isolate PHHs. The isolated hepatocytes were further purified by Percoll. The cells were resuspended with culture media and seeded into the 96-well plates (6×10^4 cell/well) or 48-well plates (1.2×10^5 cell/well). The PHHs were infected with a D type HBV one day post seeding (day 1).
# (§2) On day 2, the test compounds were diluted and added into the cell culture plates. The culture media containing the compounds were refreshed every other day. The cell culture supernatants were collected on day 8 for the HBV DNA and antigen determinations.
# (§3) The compounds were tested at 7 concentrations, 3-fold dilution, in triplicate.
# (§4) Two compounds were tested at 5×5 matrix, in triplicate plates.
# DNA in the culture supernatants harvested on days 8 were isolated with QIAamp 96 DNA Blood Kit (Qiagen-51161). For each sample, 100 μl of the culture supernatants was used to extract DNA. The DNA was eluted with 100 μl, 150 μl or 180 μl of AE. HBV DNA in the culture supernatants was quantified by qPCR. The combination effect was analyzed by the MacSynergy software. The primers are described below.
# [3] = test system: HBeAg, D type HBV in primary human hepatocytes (PHH); assay: microbe, parasite or virus in culture; format: cell-based; details: Hepatitis B virus, Hepatocyte, read-out: Inhibitor B EC50, HBeAg endpoint; determined in an earlier separate experiment
# Experimental: as §1, §2, §3, §4
# (§5) HBsAg/HBeAg in the culture supernatants harvested on days 8 were measured by the HBsAg/HBeAg ELISA kit (Autobio) according to the manual. The samples were diluted with PBS to get the signal in the range of the standard curve. The inhibition rates were calculated with the formula below. The combination effect was analyzed by the MacSynergy software.
# % Inh. HBeAg=[1−HBeAg quantity of sample/HBV quantity of DMSO control]×100.
# [4] = test system: HBsAg, D type HBV in primary human hepatocytes (PHH); assay: microbe, parasite or virus in culture; format: cell-based; details: Hepatitis B virus, Hepatocyte; for inhibition at 0.00012 µM: TDF 0.12 nM alone; for inhibition at 0.00037 µM: TDF 0.37 nM alone
# Experimental: as §1, §2, §3, §4, §5
# % Inh. HBsAg=[1−HBsAg quantity of sample/HBV quantity of DMSO control]×100.
# [5] = test system: HBV rcDNA in HepDE19 cells; assay: Inhibition of rcDNA in HepDE19 cells (bDNA assay), checkerboard, MacSynergy II; format: cell-based, HBV (human hepatoma cell line); set-up: key to ADDITIVE INHIBITION: % inhibition of rcDNA production; details: Compound 3 0 μM
# Experimental: In vitro combination studies were conducted using the method of Prichard and Shipman (Prichard M N, and Shipman C Jr., Antiviral Research, 1990, 14(4-5), 181-205; and Prichard M N, et. al., MacSynergy II). HepDE19 cell culture system is a HepG2 (human hepatocarcinoma) derived cell line that supports HBV DNA replication and cccDNA formation in a tetracycline (Tet)-regulated manner and produces HBV rcDNA and a detectable reporter molecule dependent on the production and maintenance of cccDNA (Guo et al 2007. J. Virol 81:12472-12484). HepDE19 (50,000 cells/well) were plated in 96 well collagen-coated tissue-culture treated microtiter plates in DMEM/F12 medium supplemented with 10% fetal bovine serum, 1% penicillin-streptomycin and 1 μg/ml tetracycline and incubated in a humidified incubator at 37° C. and 5% CO2 overnight. Next day, the cells were switched to fresh medium without tetracycline and incubated for 4 hrs at 37° C. and 5% CO2. […] The two inhibitors were tested both singly as well as in combinations in a checkerboard fashion such that each concentration of inhibitor A was combined with each concentration of inhibitor B to determine their combination effects on inhibition of rcDNA production. Following a 7 day-incubation of cells with compound combinations, the level of rcDNA present in the inhibitor-treated wells was measured using a Quantigene 2.0 bDNA assay kit (Affymetrix, Santa Clara, CA) with HBV specific custom probe set and manufacturers instructions. […] The RLU data from the single compound treated cells were analyzed using XL-Fit module in Microsoft Excel to determine EC50 values using a 4-parameter curve fitting algorithm. Concurrently, the effect of compounds on cell viability was assessed using replicate plates, plated at a density of 5,000 cells/well and incubated for 4 days, to determine the ATP content as a measure of cell viability using the cell-titer glo reagent (CTG; Promega Corporation, Madison, WI) as per manufacturer's instructions.
# In vitro combination studies were conducted using the method of Prichard and Shipman (Prichard M N, Shipman C, Jr., Antiviral Res, 14, 181-205 (1990)). The HepDE19 cell line was developed as described in Guo et al. (Guo et al., J Virol, 81, 12472-12484 (2007)). It is a human hepatoma cell line stably transfected with the HBV genome, and which can express HBV pregenomic RNA and support HBV rcDNA (relaxed circular DNA) synthesis in a tetracycline-regulated manner. HepDE19 cells were plated in 96 well tissue-culture treated microtiter plates in DMEM/F12 medium supplemented with 10% fetal bovine serum+1% penicillin-streptomycin without tetracycline and incubated in a humidified incubator at 37° C. and 5% CO2 overnight. […] The two inhibitors were tested both singly as well as in combinations in a checkerboard fashion such that each concentration of inhibitor A was combined with each concentration of inhibitor B to determine their combination effects on inhibition of rcDNA production. Following a 48 hour-incubation, the level of rcDNA present in the inhibitor-treated wells was measured using a bDNA assay (Affymetrix) with HBV specific custom probe set and manufacturers instructions. […] Concurrently, the effect of inhibitor combinations on cell viability was assessed using replicate plates that were used to determine the ATP content as a measure of cell viability using the Cell-TiterGlo reagent (Promega) as per manufacturer's instructions.
# In vitro combination studies were conducted using the method of Prichard and Shipman (1990) (Prichard M N, Shipman C, Jr. 1990. A three-dimensional model to analyze drug-drug interactions. Antiviral Res 14:181-205 AND Prichard M N. 1992. MacSynergy II, University of Michigan).
# [6] = read-out: Additive inhibition, HBV DNA
# [7] = read-out: Average % inhibition, HBV DNA
# [8] = read-out: Additive inhibition, HBsAg
# [9] = read-out: Average % inhibition, HBsAg
structure (smiles),measurement,setting,value
COCCCOc1cc2c(cc1OC)-c1cc(=O)c(C(=O)O)cn1[C@H](C(C)C)C2 [Compound 5],Additive % Inhibition (HBsAg) versus negative control,[1]; Compound 5 0.0001 μM alone,69.99%
same,Additive % Inhibition (HBsAg) versus negative control,[1]; Compound 5 0.000316 μM alone,82.39%
same,Additive % Inhibition (HBsAg) versus negative control,[1]; Compound 5 0.001 μM alone,89.01%
same,Additive % Inhibition (HBsAg) versus negative control,[1]; Compound 5 0.00316 μM alone,90.26%
same,Additive % Inhibition (HBsAg) versus negative control,[1]; Compound 5 0.1 μM alone,86.26%
same,Additive % Inhibition (HBsAg) versus negative control,[1]; Compound 5 1.0E−05 μM alone,46.36%
same,Additive % Inhibition (HBsAg) versus negative control,[1]; Compound 5 1.00E−06 μM alone,22.68%
same,Additive % Inhibition (HBsAg) versus negative control,[1]; Compound 5 3.16E−06 μM alone,34.18%
same,Additive % Inhibition (HBsAg) versus negative control,[1]; Compound 5 3.17E−05 μM alone,56.34%
same,EC50,"[1]; Hepatitis B virus, HepG2.2.15, Trial 2, HBsAg by CLIA, read-out: Compound 5 EC50",5 nM
O=C(Nc1ccc(F)c(F)c1)c1cc(S(=O)(=O)NC2CCCC2)ccc1F [Compound 22],AVERAGE % INHIBITION,[2]; COMPOUND 22 61.73 nM,−11.75%
same,AVERAGE % INHIBITION,[2]; COMPOUND 22 185.19 nM,−9.12%
same,AVERAGE % INHIBITION,[2]; COMPOUND 22 555.56 nM,−12.7%
same,AVERAGE % INHIBITION,[2]; COMPOUND 22 1666.67 nM,17.94%
same,AVERAGE % INHIBITION,[2]; COMPOUND 22 5000.00 nM,63.06%
CNC(=O)N[C@H]1CCOc2c(C(=O)Nc3ccc(F)c(F)c3)ccc(F)c21 [Compound 23],EC50,[3],4.53 nM
same,EC50,[4]; read-out: Inhibitor B EC50,4.36 nM
CCOC(=O)C1=C(CN2CCOCC2)NC(c2nccs2)=NC1c1ccc(F)cc1Br (stereo not drawn) [GLS4],ADDITIVE INHIBITION,[5]; GLS-4 0.007813 μM,−1.17
same,ADDITIVE INHIBITION,[5]; GLS-4 0.01563 μM,−5.82
same,ADDITIVE INHIBITION,[5]; GLS-4 0.03125 μM,7.03
same,ADDITIVE INHIBITION,[5]; GLS-4 0.0625 μM,38.95
same,ADDITIVE INHIBITION,[5]; GLS-4 0.125 μM,77.82
same,ADDITIVE INHIBITION,[5]; GLS-4 0.25 μM,94.65
same,ADDITIVE INHIBITION,[5]; GLS-4 0.5 μM,97.48
same,ADDITIVE INHIBITION,[5]; GLS-4 1 μM,98.51
same,ADDITIVE INHIBITION,[5]; GLS-4 2 μM,98.22
"CC(C)OC(=O)OCOP(=O)(CO[C@H](C)Cn1cnc2c(N)ncnc21)OCOC(=O)OC(C)C [TDF, tenofovir disoproxil fumarate]",inhibition at 0.00012 µM,[2]; [6],-1.16%
same,inhibition at 0.00012 µM,[2]; [7],-1.16%
same,inhibition at 0.00037 µM,[2]; [6],-6.24%
same,inhibition at 0.00037 µM,[2]; [7],-6.24%
same,inhibition at 0.00333 µM,[2]; [6],3.15%
same,inhibition at 0.00333 µM,[2]; [7],3.15%
same,inhibition at 0.01 µM,[2]; [6],-15.4%
same,inhibition at 0.01 µM,[2]; [7],-15.4%
same,inhibition at 0.00012 µM,[4]; [8],-3.31%
same,inhibition at 0.00012 µM,[4]; [9],-3.31%
same,inhibition at 0.00037 µM,[4]; [8],-3.32%
same,inhibition at 0.00037 µM,[4]; [9],-3.32%
same,inhibition at 0.00333 µM,"[4]; read-out: Additive inhibition, HBsAg, TDF 3.33 nM alone",-1.28%
same,inhibition at 0.01 µM,"[4]; read-out: Additive inhibition, HBsAg, TDF 10.00 nM alone",-6.65%
same,inhibition at 0.00333 µM,"[4]; read-out: Average % inhibition, HBsAg, TDF 3.33 nM alone",-1.28%
same,inhibition at 0.01 µM,"[4]; read-out: Average % inhibition, HBsAg, TDF 10.00 nM alone",-6.65%
